{"source": "ChEMBL document CHEMBL4177629", "about": "“Synthesis, anticancer, structural, and computational docking studies of 3-benzylchroman-4-one derivatives” (Bioorg Med Chem Lett, 2017)", "key": {"[1]": {"system": "BT-549", "assay": "Cytotoxicity against human BT549 cells assessed as reduction in cell viability after 24 hrs by MTT assay", "assay_type": "functional, cell-based", "details": "BT-549, 24 h"}, "[2]": {"system": "HeLa", "assay": "Cytotoxicity against human HeLa cells assessed as reduction in cell viability after 24 hrs by MTT assay", "assay_type": "functional, cell-based"}, "[3]": {"system": "Vero", "assay": "Cytotoxicity against African green monkey Vero cells assessed as reduction in cell viability after 24 hrs by MTT assay", "assay_type": "cell-based", "details": "Chlorocebus sabaeus"}, "[4]": {"assay": "Inhibition of glutathione S-transferase (unknown origin)", "design": "species or system Homo sapiens"}, "[5]": {"system": "Lu1", "assay": "Cytotoxicity against human Lu1 cells by SRB assay", "assay_type": "functional, cell-based"}, "[6]": {"system": "KB", "assay": "Cytotoxicity against human KB cells by SRB assay", "assay_type": "functional, cell-based"}, "[7]": {"system": "SK-MEL-2", "assay": "Cytotoxicity against human SK-MEL-2 cells by SRB assay", "assay_type": "functional, cell-based"}}}
{"smiles": "COc1ccc2c(c1)OCC(Cc1ccc(OC)c(O)c1)C2=O", "note": "(stereo not given)", "values": [{"measurement": "IC50", "setting": "[1]", "value": 30.6, "unit": "µM"}, {"measurement": "IC50", "setting": "[2]", "value": 50.1, "unit": "µM"}, {"measurement": "IC50", "setting": "[3]", "value": "> 200", "unit": "µM"}]}
{"smiles": "O=C1c2ccccc2OCC1Cc1ccc(O)cc1", "note": "(stereo not given)", "values": [{"measurement": "IC50", "setting": "[1]", "value": 20.1, "unit": "µM"}, {"measurement": "IC50", "setting": "[2]", "value": 42.8, "unit": "µM"}, {"measurement": "IC50", "setting": "[3]", "value": "> 200", "unit": "µM"}]}
{"smiles": "COc1ccc2c(c1)OCC(Cc1ccc(O)cc1)C2=O", "note": "(stereo not given)", "values": [{"measurement": "IC50", "setting": "[1]", "value": 24.3, "unit": "µM"}, {"measurement": "IC50", "setting": "[2]", "value": 50.4, "unit": "µM"}, {"measurement": "IC50", "setting": "[3]", "value": "> 200", "unit": "µM"}]}
{"smiles": "COc1ccc2c(c1)C(=O)[C@@H](Cc1cc(O)cc(O)c1O)CO2", "values": [{"measurement": "IC50", "setting": "[4]", "value": 17.1, "unit": "µM"}]}
{"smiles": "COc1ccc(CC2COc3cccc(OC)c3C2=O)cc1O", "note": "(stereo not given)", "values": [{"measurement": "IC50", "setting": "[1]", "value": "> 200", "unit": "µM"}, {"measurement": "IC50", "setting": "[2]", "value": "> 200", "unit": "µM"}, {"measurement": "IC50", "setting": "[3]", "value": "> 200", "unit": "µM"}]}
{"smiles": "O=C1c2ccccc2OCC1Cc1ccc(F)cc1", "note": "(stereo not given)", "values": [{"measurement": "IC50", "setting": "[1]", "value": "> 200", "unit": "µM"}, {"measurement": "IC50", "setting": "[2]", "value": "> 200", "unit": "µM"}, {"measurement": "IC50", "setting": "[3]", "value": "> 200", "unit": "µM"}]}
{"smiles": "COc1ccc(C[C@@H]2COc3cc(OC)c(C)c(O)c3C2=O)c(O)c1", "values": [{"measurement": "IC50", "setting": "[5]", "value": "0.51 to 0.66", "unit": "µM"}, {"measurement": "IC50", "setting": "[6]", "value": "0.51 to 0.66", "unit": "µM"}, {"measurement": "IC50", "setting": "[7]", "value": "0.51 to 0.66", "unit": "µM"}]}
{"smiles": "Cc1ccc(CC2COc3ccccc3C2=O)cc1", "note": "(stereo not given)", "values": [{"measurement": "IC50", "setting": "[1]", "value": 42.2, "unit": "µM"}, {"measurement": "IC50", "setting": "[2]", "value": 48.9, "unit": "µM"}, {"measurement": "IC50", "setting": "[3]", "value": "> 200", "unit": "µM"}]}
{"smiles": "COc1ccc(CC2COc3ccccc3C2=O)c(OC)c1OC", "note": "(stereo not given)", "values": [{"measurement": "IC50", "setting": "[1]", "value": "> 100", "unit": "µM"}, {"measurement": "IC50", "setting": "[2]", "value": "> 100", "unit": "µM"}, {"measurement": "IC50", "setting": "[3]", "value": "> 200", "unit": "µM"}]}
{"smiles": "COc1ccc(CC2COc3ccccc3C2=O)c(OC)c1", "note": "(stereo not given)", "values": [{"measurement": "IC50", "setting": "[1]", "value": 61.9, "unit": "µM"}, {"measurement": "IC50", "setting": "[2]", "value": 38.3, "unit": "µM"}, {"measurement": "IC50", "setting": "[3]", "value": "> 200", "unit": "µM"}]}
{"smiles": "COc1ccc(CC2COc3ccccc3C2=O)cc1O", "note": "(stereo not given)", "values": [{"measurement": "IC50", "setting": "[1]", "value": "> 100", "unit": "µM"}, {"measurement": "IC50", "setting": "[2]", "value": 20.4, "unit": "µM"}, {"measurement": "IC50", "setting": "[3]", "value": "> 200", "unit": "µM"}]}
{"smiles": "COc1ccc(CC2COc3ccccc3C2=O)cc1OC", "note": "(stereo not given)", "values": [{"measurement": "IC50", "setting": "[1]", "value": "> 100", "unit": "µM"}, {"measurement": "IC50", "setting": "[2]", "value": "> 100", "unit": "µM"}, {"measurement": "IC50", "setting": "[3]", "value": "> 200", "unit": "µM"}]}
{"smiles": "O=C1c2ccccc2OCC1Cc1ccc(Cl)cc1", "note": "(stereo not given)", "values": [{"measurement": "IC50", "setting": "[1]", "value": 69.3, "unit": "µM"}, {"measurement": "IC50", "setting": "[2]", "value": 61.9, "unit": "µM"}, {"measurement": "IC50", "setting": "[3]", "value": "> 200", "unit": "µM"}]}
{"smiles": "COc1ccc(CC2COc3ccccc3C2=O)cc1", "note": "(stereo not given)", "values": [{"measurement": "IC50", "setting": "[1]", "value": "> 100", "unit": "µM"}, {"measurement": "IC50", "setting": "[2]", "value": "> 100", "unit": "µM"}, {"measurement": "IC50", "setting": "[3]", "value": "> 200", "unit": "µM"}]}
{"smiles": "Cc1ccc2c(c1)OCC(Cc1ccc(O)cc1)C2=O", "note": "(stereo not given)", "values": [{"measurement": "IC50", "setting": "[1]", "value": 28.7, "unit": "µM"}, {"measurement": "IC50", "setting": "[2]", "value": 43, "unit": "µM"}, {"measurement": "IC50", "setting": "[3]", "value": "> 200", "unit": "µM"}]}
{"smiles": "COc1ccc(CC2COc3ccc(C)cc3C2=O)cc1", "note": "(stereo not given)", "values": [{"measurement": "IC50", "setting": "[1]", "value": "> 100", "unit": "µM"}, {"measurement": "IC50", "setting": "[2]", "value": 76.3, "unit": "µM"}, {"measurement": "IC50", "setting": "[3]", "value": "> 200", "unit": "µM"}]}
{"smiles": "COc1ccc(CC2COc3cc(C)ccc3C2=O)cc1", "note": "(stereo not given)", "values": [{"measurement": "IC50", "setting": "[1]", "value": 42.1, "unit": "µM"}, {"measurement": "IC50", "setting": "[2]", "value": 68.3, "unit": "µM"}, {"measurement": "IC50", "setting": "[3]", "value": "> 200", "unit": "µM"}]}
{"smiles": "O=C1c2cc(O)ccc2OC[C@@H]1Cc1cc(O)cc(O)c1O", "values": [{"measurement": "IC50", "setting": "[4]", "value": 16.5, "unit": "µM"}]}
